Experiment [1] deals with B-CLL. In words: Inhibition of spliceosome-mediated splicing of DNAJB1 gene in human B-CLL cells at 10 uM after 4 hrs by RT-PCR analysis. The class given is cell-based.
In the next experiment the test system is HCT-116. As to the kind of experiment: Cytotoxicity against human HCT116 cells by MTT assay. The class given is functional, cell-based. On the technique in general: Tetrazolium assays rely on reduction of a dye to a coloured formazan, in cell work by metabolically active cells.
The nature of experiment [2]: Induction of apoptosis in human CLL cells by 3,3'-dihexyloxacarbocyanine iodide staining-based flow cytometry. The class given is functional, cell-based. A general note: A flow cytometer gives signals particle by particle.
In experiment [3] the test system is B-CLL. As to the kind of experiment: Inhibition of spliceosome-mediated splicing of DNAJB1 gene in human B-CLL cells at 0.1 to 1.0 uM after 4 hrs by RT-PCR analysis. The class given is cell-based.
In experiment [4] the test system is B-CLL. In words: Inhibition of spliceosome-mediated splicing of DNAJB1 gene in human B-CLL cells at 0.1 uM after 4 hrs by RT-PCR analysis. The class given is cell-based.

Structures are written as SMILES. Active and inactive are the calls of the source. The calls are words filed in the database; no cut-off is given here.

Consider `Nc1nc(F)nc2c1ncn2[C@@H]1O[C@H](CO)[C@@H](O)[C@@H]1O`, for which, in the experiment with B-CLL [1], the outcome was inactive.

What is called IC50 is the point on the concentration scale where inhibition reaches its midpoint. In the experiment with HCT-116, `CC[C@H](O)[C@@H](C)[C@H]1O[C@@H]1C[C@H](C)/C=C/C=C(\C)[C@H]1OC(=O)CCCCCC/C=C/[C@@H]1C` registered a 50% inhibitory concentration (IC50) greater than 50000 nM. Regarding `CC[C@H](OC)[C@@H](C)[C@H]1O[C@@H]1[C@@H](O)[C@@H](C)/C=C/C=C(\C)[C@H]1OC(=O)C[C@H](O)CC[C@@](C)(O)[C@@H](OC(C)=O)/C=C/[C@@H]1C`, the 50% inhibitory concentration (IC50) with HCT-116 was 23 nM; in experiment [2], greater than 50000 nM. On to `CC[C@H](OC)[C@@H](C)[C@H]1C[C@@H]1[C@@H](O)[C@H](C)/C=C/C=C(\C)[C@H]1OC(=O)C[C@H](O)CC[C@@](C)(O)[C@@H](OC(C)=O)/C=C/[C@@H]1C`, for which the result in the experiment on B-CLL [3] and with B-CLL [4] was Active. Also, the IC50 was 42.9 nM with HCT-116 and 103 nM in experiment [2]. In turn, `CC[C@H](OC)[C@@H](C)[C@H]1O[C@@H]1[C@@H](O)[C@H](C)/C=C/C=C(\C)[C@H]1OC(=O)C[C@H](O)CCCC/C=C/[C@@H]1C` came in with an IC50 in the experiment with HCT-116 greater than 50000 nM. On the same count and under the same terms, the result for `CC[C@H](O)[C@@H](C)[C@H]1O[C@@H]1C[C@H](C)/C=C/C=C(\C)[C@H]1OC(=O)CCCCCC/C=C/[C@H]1C` reads greater than 50000 nM.

As for `CC[C@H](O)[C@@H](C)[C@H]1O[C@@H]1C[C@H](C)/C=C/C=C(\C)[C@H]1OC(=O)C[C@H](O)CC[C@@](C)(O)[C@@H](OC(C)=O)CC[C@@H]1C` [PLADIENOLIDE B], the IC50 with HCT-116 was 24.8 nM; in experiment [2], 30.5 nM. The outcome with B-CLL [4] was Active. In the case of `CC[C@H](OC)[C@@H](C)[C@H]1O[C@@H]1[C@H](O)[C@@H](C)/C=C/C=C(\C)[C@H]1OC(=O)C[C@H](O)CC[C@@](C)(O)[C@@H](OC(C)=O)/C=C/[C@@H]1C`, the figures for the IC50 (in the experiment with HCT-116; in experiment [2]) were 3.7 nM and 109 nM, respectively. `CC[C@H](OC)[C@@H](C)[C@H]1O[C@@H]1[C@H](OC(C)=O)[C@H](C)/C=C/C=C(\C)[C@H]1OC(=O)C[C@H](OC(C)=O)CC[C@@](C)(O)[C@@H](OC(C)=O)/C=C/[C@@H]1C`: 542 nM corresponded to half-maximal inhibition in the experiment with HCT-116 (IC50).

On to `CC[C@H](OC)[C@@H](C)[C@H]1O[C@@H]1[C@@H](O)[C@H](C)/C=C/C=C(\C)[C@H]1OC(=O)C[C@H](O)CC[C@@](C)(O)[C@@H](OC(C)=O)/C=C/[C@@H]1C`, for which the half-maximal inhibitory concentration (IC50) in the experiment on HCT-116 was 0.8 nM. On the same count and under the same terms, the result for `CC[C@H](OC)[C@@H](C)[C@H]1C[C@@H]1[C@@H](O)[C@@H](C)/C=C/C=C(\C)[C@H]1OC(=O)C[C@H](O)CC[C@@](C)(O)[C@@H](OC(C)=O)/C=C/[C@@H]1C` reads 82.3 nM; that for `CC[C@H](OC)[C@@H](C)[C@H]1O[C@@H]1[C@H](OC(C)=O)[C@H](C)/C=C/C=C(\C)[C@H]1OC(=O)C[C@H](O)CC[C@@](C)(O)[C@@H](OC(C)=O)/C=C/[C@@H]1C`, 142 nM. With `CC[C@H](OC)[C@@H](C)[C@H]1O[C@@H]1[C@H](O)[C@H](C)/C=C/C=C(\C)[C@H]1OC(=O)C[C@H](O)CC[C@@](C)(O)[C@@H](OC(C)=O)/C=C/[C@@H]1C`, the IC50 with HCT-116 stood at 23.5 nM; in experiment [2], 2.1 nM. The outcome with B-CLL [4] was Active. On to `CC[C@H](OC)[C@@H](C)[C@H]1O[C@@H]1[C@@H](O)[C@H](C)/C=C/C=C(\C)[C@H]1OC(=O)CCCCCC/C=C/[C@@H]1C`, for which the half-inhibitory concentration (IC50) in the experiment with HCT-116 is greater than 50000 nM.

The record behind these values is ChEMBL document CHEMBL2417526, “Stabilized cyclopropane analogs of the splicing inhibitor FD-895” (J Med Chem, 2013).
